Reference: US11273201B2, “Compositions and methods for inducing thrombopoiesis” (Hadasit Medical Research Services and Development Ltd., priority 2013, dated 2022)

Assays:
[1] = tested on: LAMA-84 cells; assay: PMA-induced megakaryocytic differentiation of LAMA-84 cells (morphology, CD41/CD71 flow cytometry, PI ploidy); type: cell-based, Human
Experimental: LAMA-84 cells were maintained in RPMI1640 containing 10% fetal calf serum, 100 U/ml penicillin, 100 μg/ml streptomycin and 2 mM glutamine. To induce differentiation, the cell culture was supplemented with 0.6-5 ng/ml PMA or 50 μM Hemin and cells were harvested and analyzed 1-5 days following treatment.
(§1) To determine the extent of maturation toward MKs 1×10^6 cultured cells (LAMA-84 or CD34+ cells) were washed and then labeled with anti-CD41-FITC (GpIIb/IIIa, BD Bioscience, USA), or anti CD71-FITC or combination of anti-CD33-FITC, anti-CD41-PE, and CD34-APC (Beckman Coulter, USA) and analyzed using FACScalibur (Becton Dickinson, USA) for the percentage of CD41^+ cells generated.
(§2) To determine the amount of ploidy, differentiated LAMA-84 cells were fixed overnight in 75% ethanol at 4° C., labeled with propidium iodide (PI, 50 μg/ml) and analyzed using FACScalibur. Fourteen day differentiated CD34+ were analyzed quantitatively under a microscope following May Grumwald/Giemsa staining for the number of nuclei per cell. Only cells with MK morphology were analyzed.
LAMA-84 cell differentiation following PMA treatment was studied via morphological staining of the cells with May Grunwald/Giemsa and via flow cytometry analysis of CD41 (MK marker) and CD71 (erythroid marker) expression. Moreover, ploidy, a marker of MK differentiation, was also determined by flow cytometry using propidium iodide (PI). A range of PMA concentrations was tested and differentiation was obtained at 0.6-10 ng/ml PMA.

[2] = tested on: Livin, Survivin, XIAP; assay: Western blot of IAP family proteins during LAMA-84 differentiation; type: cell-based, Human
Experimental: Whole cell lysates were prepared from 0.25-1×10^6 cells using 100 μl lysis buffer [20 mM Tris-HCl, 2 mM EDTA, 6 mM β-Mercaptoethanol, 1% Nonidet P-40 (NP-40), 0.1% SDS and protease inhibitors] at 4° C. for 20 min, with vigorous vortex mixing. Antibodies used were: monoclonal antibody against Livin (clone 88C570) (Imgenex, USA) diluted 1:3000 and Survivin 6E4 monoclonal antibody (Cell Signaling Technology, USA), followed by Envision-HRP (DAKO, Denmark) as a secondary antibody; Polyclonal antibody against XIAP (Cell Signaling Technology, USA), followed by anti-rabbit IgG HRP-linked antibody (Cell Signaling Technology, USA) as a secondary antibody. For immunoprecipitation, equal amounts of protein lysates were pre-cleared with Protein A/G-Agarose (Santa Cruz, USA) together with 1 μg of mouse IgG. Livin was immunoprecipitated from the cleared lysates (using clone 88C570) and the immune complexes were precipitated with Protein A/G-Agarose.
The expression of anti-apoptotic proteins of the […] (IAPs) during the differentiation of LAMA-84 cells towards MKs was analyzed by Western blot analysis. […] Note that in contrast to Livin, the level of Survivin decreased when cells were treated with PMA (FIG. 2E).

[3] = tested on: LAMA-84 derived PLPs; assay: Aggregation of LAMA-84 derived platelet-like particles (AGGRAM aggregometer); type: cell-based, Human; details: PMA treated LAMA-84 culture-derived PLPs
Experimental: Platelets and Platelet like particles generated from platelets-poor plasma e.g. LAMA-84 differentiated cells were tested for their functionality in aggregation assays using an AGGRAM aggregometer (Helena Laboratories, Beaumont, Tex.) according to the manufacturer's instructions using various agonists: adenosine diphosphate (ADP) (11 μM), arachidonic acid (AA) (1.6 μM), Epinephrine (50 μM), Ristocetin (1.6 mM) (Diamed AG, Morat, Switzerland) or collagen (5 μg/ml) (Helena Laboratories, Beaumont, Tex.).

[4] = tested on: LAMA-84 cells; assay: Release of CD41+ platelet-like particles from LAMA-84 cultures (flow cytometry); type: cell-based, Human
Experimental: (§3) Platelets release into the differentiated cultures was assessed via flow cytometry analysis of the supernatants. Specifically, the culture medium was collected and centrifuged at 150×g for 20 minutes to remove the nucleated cells. The supernatant was then centrifuged at 500×g for 20 minutes to pellet the platelets. Sediments containing platelets and platelet-like particles were resuspended in culture medium in 500 μl aliquots and labeled using anti-CD41-FITC. Cells were analyzed by FACScalibur for CD41 expression and log amplification of forward scatter (FCS) and side scatter (SSC).

[5] = tested on: Human CD34+ cells; assay: CD41+ platelets released from differentiated CD34+ cultures (flow cytometry); type: cell-based; details: day 14, SCF and TPO
Experimental: as §3
The following experiments evaluated whether functional platelets were generated from the human CD34^+ cell cultures that were transduced with Livin, LivinRING or control empty vector and grown for 14 days under MK differentiating conditions with the addition of SCF and TPO. Platelets released into the media were characterized for CD41 expression and functionality by CD62P up regulation via flow cytometry.

[6] = tested on: caspase-3; assay: Caspase-3 activity in LAMA-84 cell extracts (CaspACE colorimetric); type: cell-based, Human; details: day 4, PMA treated LAMA-84 stably over-expressing construct
Experimental: Extracts from 1×10^6 cells were prepared by the freeze-thaw method assayed for caspase-3 activity using CaspACE™ Assay System, Colorimetric (Promega, USA), according to manufacturer's instructions.
To address the mechanism of action of Livin in MKs differentiation, LAMA-84 cells were stably transfected to over-express Livin and the expression and effects of Livin protein during MKs differentiation were tested by means of Western blot analysis, caspase-3 activity, CD41 expression evaluated by flow cytometry and platelets functionality evaluated by aggregation assay (FIGS. 4A-4D). Specifically, control LAMA-84 cells (EV, empty vector) and LAMA-84 cells stably over expressing wild-type Livin or Livin mutant lacking pro-apoptotic activity (LivinRING) were treated with PMA for 5 Days. Cells were harvested at 12, 24, 48 and 96 hours for evaluation.

[7] = tested on: platelets derived from CD34+ cultures; assay: Platelet activation by CD62P expression, platelets from CD34+ cultures; type: cell-based, Human; details: platelets from over-expressing CD34+ cultures
Experimental: Since the number of platelets generated from CD34+ cultures was low, platelets derived from these cultures were stimulated for 15 minutes at room temperature (RT) with ADP or AA and activation was assessed via flow cytometry analysis of CD62P (Pselectin)-PE (Beckman Coulter) expression (up regulation of CD62P implies activation).

[8] = tested on: Human CD34+ cells; assay: Megakaryocyte differentiation of cord blood CD34+ cells with SCF and TPO (CD41, CD33, nuclei number, Western blot); type: cell-based
Experimental: Human CD34+ cells were cultured in Iscove's medium (IMDM) (1×10^5 cells/well) and induced to differentiate into MKs in the presence of 10 ng/ml stem cell factor (SCF) and 50 ng/ml thrombopoietin (TPO), freshly supplemented every 3 days. Cells were harvested and analyzed on day 14.
293T cells were infected to produce the virus and supernatant from 48 and 72 hours were infected into both LAMA-84 and CD34+ cells during their differentiation induction phase. In order to over-express Livin both LAMA-84 and CD34+ cells were infected following 1 day of differentiation with pWZL IRES-blasticidin vector expressing wild-type Livin (Livin β), LivinRING (Livin β RING), or empty vector (EV). For down-regulating expression of endogenous Livin, LAMA-84 were transfected by electroporation with pSUPER-Livin-2 (Livin siRNA) or pSUPER-luc (control siRNA) vectors^35 together with pWZL IRES-blasticidin 1 day following differentiation initiation. For down-regulating expression of endogenous Livin in CD34+ cells, cells were infected 1 day after differention with supernatant containing the pSUPER viruses generated by 293T cells.
as §1, §2
To investigate the effect of Livin on primary MK progenitors, human CD34+ cells isolated from cord blood samples, were transduced with Livin, LivinRING or control empty vector and grown for 14 days under MK differentiating conditions with the addition of stem cell factor (SCF) and thrombopoeitin (TPO)^41. At the terminal stages of primary MKs maturation CD34+ cell cultures were examined morphologically, analyzed for CD41 expression and polyploidy via flow cytomery, and Livin expression and cleavage via Western Blot.

Hemin
CD41 expression levels ([1]; Hemin, erythroid differentiation negative control): did not increase CD41 expression levels
Levels of IAP family proteins tested ([2]; Hemin negative control): did not regulate the levels

CCCCCCCCCCCCCC(=O)O[C@@H]1[C@@H](C)[C@@]2(O)[C@@H](C=C(CO)C[C@]3(O)C(=O)C(C)=C[C@@H]23)[C@@H]2C(C)(C)[C@]12OC(C)=O [PMA, Phorbol myristate acetate]
Aggregation of PLPs in response to Epinephrine, collagen, ADP [3]: aggregated
Ploidy (PI flow cytometry) ([1]; 4 days of exposure to 5 ng/ml PMA): underwent polyploidization (8N, 16N and 32N)
CD41 expression (percent CD41 positive cells) ([1]; 4 days, 5 ng/ml PMA, untreated 8.8%±5.6%): 81.9%±10%
Morphology (May Grunwald/Giemsa) ([1]; LAMA-84 cells after PMA induction): marked increase in cell size and extensive multinuclearity
PMA concentration at which differentiation was obtained ([1]; LAMA-84 cells, range of PMA concentrations tested): 0.6 to 10 ng/mL
Percentage of CD41+ PLPs released to culture medium ([4]; after incubation with PMA, untreated 6.5%±2.2%): 24.3%±3.6%
Level of full length XIAP ([2]; PMA differentiation, cleaved 30 kDa fragment appears): dose dependent significant decrease
Livin protein expression ([2]; PMA-induced differentiation, not detected in untreated cells): up-regulated
Survivin level ([2]; cells treated with PMA): decreased

B1: wild-type Livin: Livin β (SEQ ID NO: 5 cDNA) over-expressed from pWZL IRES-blasticidin retroviral vector (protein, listed as Homo sapiens)
chain: MGPKDSAKCLHRGPQPSHWAAGDGPTQERCGPRSLGSPVLGLDTCRAWDHVDGQILGQLRPLTEEEEEEGAGATLSRGPAFPGMGSEELRLASFYDWPLTAEVPPELLAAAGFFHTGHQDKVRCFFCYGGLQSWKRGDDPWTEHAKWFPSCQFLLRSKGRDFVHSVQETHSQLLGSWDPWEEPEDAAPVAPSVPASGYPELPTPRREVQSESAQEPGARDVEAQLRRLQEERTCKVCLDRAVSIVFVPCGHLVCAECAPGLQLCPICRAPVRSRVRTFLS
Number of CD41+ PLPs versus control (empty vector) cells ([4]; day 4, PMA treated LAMA-84 over-expressing construct): produced more PLPs
Platelets produced (CD41+) compared to empty vector control [5]: 4.3±1 fold
Caspase-3 enzyme activity [6]: induced caspase-3 activation
Platelet activity in response to arachidonic acid (CD62P up regulation) [7]: demonstrated activity
Cleavage of Livin (Western blot) ([2]; LAMA-84 over-expressing wild-type Livin, PMA, 96 h): underwent cleavage only at the terminal stage of differentiation
Increase in percentage of CD41 stained cells compared to empty vector ([8]; day 14, SCF and TPO, p=0.029): 3.7±1 fold
CD33 expression of differentiated CD41+ cells ([8]; day 14, n=9, control cells 7.4±6.9%): 22.6±39.8%
Multi-nucleated MKs (≥4 nuclei) ([8]; day 14, versus LivinRING or empty vector (p=0.01 and 0.02)): significant increase
Livin and tLivin protein levels (Western blot) ([8]; day 14, versus naive and empty vector CD34+ cultures): robust levels
